The text below walks through data of patent US20260324636A1, “COMPOSITION FOR PROVIDING PLANT WITH STRESS RESISTANCE” (KIRIN HOLDINGS KABUSHIKI KAISHA, priority 2022, published 2026).

In one assay the test system is HSFA2. As to the kind of experiment: HSFA2 gene expression by real-time PCR, Example 5. The class given is in vivo. To be noted: Arabidopsis thaliana; 0.1 mM in medium, 2 hours after application, 22° C.; read-out: HSFA2 expression level, increase vs group not subjected to the treatment. The procedure:
The materials as used in Example 1 were used.
The method as employed in Example 1 was employed.
N-acetylglutamic acid was applied to Arabidopsis thaliana 7 days after inoculation to the final concentration of 0.1 mM in the medium, followed by incubation for 2 hours or 6 hours. The incubator was maintained at a temperature of 22° C. for a daily cycle of 16 hours light and 8 hours darkness. After incubation, the samples were frozen with liquid nitrogen, and RNA was extracted using the RNeasy Plant Mini Kit (Thermo Fischer Scientific).
cDNA that would be necessary as a real-time PCR template was synthesized from the RNA obtained. 500 ng total RNA was used for each sample, and cDNA was synthesized using the Verso cDNA Synthesis Kit (Thermo Fischer Scientific). The synthesized cDNA was diluted to 5-fold with sterile distilled water and subjected to real-time PCR. For real-time PCR, a reaction solution containing HSFA2 (AGI code: AT2G26150) and HSP17.6C (AGI code: AT1G53540) as the target genes, ACTIN2 (AGI code: AT3G18780) as the reference gene, and TB Green Ex Taq II (TaKaRa) was prepared. PCR was performed with the use of the LightCycler® 480 System (Roche) with the number of amplification cycles of 50. […]
Thereafter, the relative expression level of the target genes upon N-acetylglutamic acid treatment were calculated by the ΔΔCt method using the Cp values obtained by real-time PCR.

Another assay has as its system rice. As to the kind of experiment: High-temperature stress resistance in rice (fresh weight of aboveground part), Example 3. The class given is in vivo, rice (variety: Nipponbare). To be noted: 0.5 mM in medium, 24 h before 44° C. for 3 hours, then 22° C. 3 days. The procedure: A wild-type rice strain (the variety: Nipponbare) was used as an experimental material. Seeds were purchased from Nouken (https://nouken-seed.shop-pro.jp/).
A liquid medium consisting of a ½ Murashige and Skoog Plant Salt Mixture (Nacalai) was used as a growth medium.
With the use of a 50-ml Falcon tube, rice seeds were sterilized for 30 minutes with the use of a Kitchen Haiter® liquid (Kao Corporation) diluted to one-half concentration with distilled water for 30 minutes and washed 5 times with sterile distilled water. The tube was laid down, sterile distilled water was introduced thereinto in an amount that would sufficiently soak the washed seeds, and culture was performed in an incubator for 3 days to germinate the seeds. The incubator was maintained at a temperature of 30° C. for a daily cycle of 16 hours light and 8 hours darkness.
The growth medium was dispensed at 3 ml/well on a 12-well microplate (IWAKI) 3 days after the initiation of incubation, 3 grains of the germinated seeds were inoculated in each well, and the resultants were handled as experimental materials. […]
High-temperature treatment was performed with the use of an incubator. […] Thereafter, the plate was incubated in an incubator maintained at 22° C. for 3 days, plants were collected, and the fresh weight of the aboveground part excluding seeds and roots was quantified.

A further assay deals with hop. As to the kind of experiment: High-temperature stress resistance in hop (fresh weight of aboveground part), Example 4. The class given is in vivo, hop (variety: Saaz). To be noted: 0.1 mM in agar medium, 30° C. 2 weeks. The procedure:
A hop strain (the variety: Saaz) was used as an experimental material. Hop seedlings were purchased from Hananoyakata (http://hananoyakata.shop-pro.jp).
Tissue-cultured seedlings required for evaluation of high temperature response of a hop were prepared in a laboratory. A stem fragment including a node was removed from a Saaz seedling as an explant and incubated with 70 (v/v) % ethanol (FUJIFILM Wako) for 1 minute and with 1 (v/v) % sodium hypochlorite (FUJIFILM Wako) for 5 minutes for sterilization. The explant was washed with sterile water for 1 minute, washing was repeated 3 times, moisture was removed therefrom with a paper towel, the explant was inoculated in an agar medium containing a ½ Murashige and Skoog Plant Salt Mixture, 2 (w/v) % glucose, and 0.2 (w/v) % gellan gum (FUJIFILM Wako), and culture was initiated in an incubator. The incubator was maintained at a temperature of 20° C. for a daily cycle of 16 hours light and 8 hours darkness. Two weeks after the initiation of culture, axillary buds extending from the nodes were cut and inoculated into an agar medium, and the sufficiently grown seedlings were designated as “tissue-cultured seedlings.” Tissue-cultured seedlings were subcultured by inoculating apical buds into fresh agar media every 1.5 months. […]

Another assay concerns OsHSFA2E. The experiment in a line: OsHSFA2E gene expression by real-time PCR, Example 6. The note with it: Oryza sativa; 0.5 mM in medium, 30° C. for 2 hours, aboveground part; read-out: OsHSFA2E expression level, increase vs control. The class given is in vivo, rice. From the text: In order to design primers for the target genes necessary for gene expression analysis by real-time PCR, homologs of Arabidopsis thaliana high-temperature-responsive genes in rice were searched for. The amino acid sequence of Arabidopsis thaliana HSFA2 (AGI code: AT2G26150) was obtained from TAIR (https://www.arabidopsis.org/), and the nucleotide sequence of the homolog was obtained using RAP-DB (https://rapdb.dna.affrc.go.jp/). As a reference gene, the nucleotide sequence of the homolog of Arabidopsis thaliana ACTIN2 (AGI code: AT3G18780) was also obtained. Homolog genes in rice were designated as OsHSFA2E and OsACT1, respectively.
The materials as used in Example 3 were used.
The method as employed in Example 3 was employed.
The rice samples subjected to germination for 3 days were inoculated into a liquid medium consisting of a ½ Murashige and Skoog Plant Salt Mixture. Specifically, a liquid medium was dispensed at 3 ml/well to a 12-well microplate (IWAKI), and 3 samples were transferred to each well. N-acetylglutamic acid was applied to each well to the final concentration of 0.5 mM in the medium, incubation was performed at 30° C. for 2 hours, and RNA was extracted from the aboveground part using the RNeasy Plant Mini Kit. […]
Thereafter, the relative expression level of the target gene upon N-acetylglutamic acid treatment was calculated by the ΔΔCt method.
A general note: In qPCR the cycle at which signal appears reflects the starting amount.

Consider `CC(=O)N[C@@H](CCC(=O)O)C(=O)O` [N-acetylglutamic acid], for which, in the assay with HSFA2, the fold induction at 100 µM amounted to 2.5. Moreover, the “decrease in the fresh weight of the aboveground part caused by high-temperature treatment” value with rice was “suppressed to a significant extent”. Further, in the assay on hop, the “fresh weight of the aboveground part, increase relative to the group not subjected to the treatment” value was 1.8 times. Also, the “decrease in the fresh weight of the aboveground part caused by the high-temperature treatment” value with hop (vs control group) was “suppressed”. The fold induction at 500 µM with OsHSFA2E was 1.4.
